Reference: patent publication US10407467B2, “Polymyxin derivatives and their use in combination therapy together with different antibiotics” (priority 2013, dated 2019)
Bridge positions count the residues as written; N and C are the ends. Square brackets hold non-standard residues; d marks the D form. Peptide text beside a SMILES is read from it. ξ: configuration not given here. Thr(3ξ) = CC(O)[C@H](N)C(=O)O; Dab = NCC[C@H](N)C(=O)O; GABA = NCCCC(=O)O

Experiments:
[1] = rats, 8 mg/kg BID regimen, seven days, compared to Colistin at the same dose regimen
Experimental: After one week acclimatisation, male Sprague-Dawley rats were surgically prepared with a jugular cannula and were housed individually, as required, either in pre-assigned housing cages or metabolic cages. Colistin and the Example Compounds were prepared in saline.
Compounds were introduced via the jugular cannula twice a day 7 hours apart for seven days. Each dose was increased progressively for three days up to the top dose that was then administered until termination of the study. Twenty-four hour urine collection (on ice) was performed at pre-dose and on days 4 and 7. The dose regimen is set out in Table 10 below.
The doses in the table are indicated in mg drug base/kg (free base).
The activity in urine of the N-acetyl-beta-D-glucosaminidase (NAG) was determined spectrophotometrically using the NAG assay kit from Roche Applied Science. Biomarkers of kidney injury were determined using the Kidney Injury Panel II from the Multi-Spot® Assay System (Meso Scale Discovery).

Escherichia coli [2] = assay: MIC, sole activity (no second agent); assay type: cell-based
In short: (§1)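 Compound tested without a second agent in cation-adjusted MHB, up to four strains per species, inoculum at 0.5 McFarland from colonies grown 18-24 h on Mueller-Hinton agar. Run in duplicate, invalid beyond 2-fold disagreement, lower duplicate or modal repeat value given, expressed relative to Polymyxin B.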

Pseudomonas aeruginosa [3] = assay: MIC, sole activity (no second agent); assay type: cell-based
In short: as §1

Klebsiella pneumoniae [4] = assay: MIC, sole activity (no second agent); assay type: cell-based
In short: as §1

[5] = test system: Klebsiella pneumoniae ATCC10031
Experimental: At 1 h, the CFU count was determined from 5 mice and the remaining mice (five per group) were treated with a subcutaneous injection of the drug at +1 and 6 hr post-infection.
Twenty-four hours after infection, the mice were euthanized humanely. The muscle of the right thigh of each animal was harvested, homogenized, serially diluted and plated on Brain Heart Infusion agar+0.5% charcoal (w/v) for CFU determination. Decrease of the total CFU of right thigh as compared to control counts at 24 h post-infection was determined for each dose group.

Klebsiella pneumoniae [6] = assay: MIC, compound in combination with a second agent (broth microdilution); assay type: cell-based
In short: (§2)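 Isolated colonies from an 18-24 hour Mueller-Hinton agar plate are suspended to the 0.5 McFarland standard, then tested against 1:1 w/w mixtures of compound and a second antibacterial such as rifampicin. Reported MICs represent total drug (both components).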

HK-2 cell line = assay: In vitro renal cell toxicity assay (resazurin reduction); assay type: cell-based, human; details: HK-2 cells, 24 h, resazurin reduction; mean values of up to 6 independent studies
Acinetobacter baumannii [7] = assay: MIC, sole activity (no second agent); assay type: cell-based; details: Second Agent none (Table 7B, by row order)
In short: as §1

Escherichia coli [8] = assay: MIC, compound in combination with a second agent (broth microdilution); assay type: cell-based
In short: as §2

Pseudomonas aeruginosa [9] = assay: as above; assay type: cell-based
In short: as §2

Acinetobacter baumannii [10] = assay: as above; assay type: cell-based
In short: as §2

[11] = 1:1 (wt:wt) combination with Rifampicin, MIC = total drug concentration, strain ATCC-BAA-2146
[12] = 1:1 (wt:wt) combination with Rifampicin, MIC = total drug concentration, strain CCUG-59348
[13] = 1:1 (wt:wt) combination with Rifampicin, MIC = total drug concentration, strain NCTC 13438
[14] = Second Agent none (Table 7B, by row order)
[15] = 1:1 combination with Ciprofloxacin, total drug concentration
[16] = 1:1 combination with Tigecycline, total drug concentration
[17] = 1:1 combination with Vancomycin, total drug concentration
[18] = 1:1 combination with Ciprofloxacin (by row order), total drug concentration
[19] = Ratio of Compound to Rifampicin 1:1, total drug concentration
[20] = Ratio of Compound to Rifampicin 1:3, total drug concentration
[21] = Ratio of Compound to Rifampicin 3:1, total drug concentration

## CC(C)C[C@@H]1NC(=O)[C@@H](Cc2ccccc2)NC(=O)[C@H](CCN)NC(=O)[C@@H](NC(=O)[C@H](CCN)NC(=O)[C@@H](NC(=O)CCCN)C(C)O)CCNC(=O)[C@H](C(C)O)NC(=O)[C@H](CCN)NC(=O)[C@H](CCN)NC1=O (stereo partly drawn) [Example 4, 4-Aminobutanoyl polymyxin B nonapeptide] (H-[GABA][Thr(3ξ)][Dab][Dab][Dab][dF]L[Dab][Dab][Thr(3ξ)]; lactam 4-C)
[1]
  levels of the renal biomarkers NAG, albumin and cystatin C in urine: significantly reduced levels
Escherichia coli [2]; in the absence of Rifampicin, strain ATCC25922
  MIC E. coli ATCC25922: 2 micrograms/mL
Escherichia coli [2]; in the absence of Rifampicin, strain NCTC9001
  MIC E. coli NCTC9001: 8 micrograms/mL
Pseudomonas aeruginosa [3]; in the absence of Rifampicin, strain ATCC27853
  MIC P. aeruginosa ATCC 27853: 0.25 micrograms/mL
Pseudomonas aeruginosa [3]; in the absence of Rifampicin, strain ATCCCRM-9027
  MIC P. aeruginosa ATCCCRM-9027: 0.125 micrograms/mL
Klebsiella pneumoniae [4]; in the absence of Rifampicin, strain ATCC 4352
  MIC K. pneumoniae ATCC 4352: 1 micrograms/mL
Klebsiella pneumoniae [4]; in the absence of Rifampicin, strain ATCC-BAA2146
  MIC K. pneumoniae ATCC-BAA2146: >32 micrograms/mL
Klebsiella pneumoniae [4]; in the absence of Rifampicin, strain CCUG-59348
  MIC K. pneumoniae CCUG-59348: >32 micrograms/mL
Klebsiella pneumoniae [4]; in the absence of Rifampicin, strain NCTC-13438
  MIC K. pneumoniae NCTC-13438: >32 micrograms/mL
[5]; 10 mg/kg/day, neutropenic mice thigh infection
  reduction in bacterial counts: approx. 2 log10
Klebsiella pneumoniae [6]; [11]
  MIC K. pneumoniae ATCC-BAA-2146: 2 micrograms/mL
Klebsiella pneumoniae [6]; [12]
  MIC K. pneumoniae CCUG-59348: 16 micrograms/mL
Klebsiella pneumoniae [6]; [13]
  MIC K. pneumoniae NCTC 13438: 0.5 micrograms/mL

## Colistin [reference compound]
HK-2 cell line
  IC50 HK-2 cells: 28 µg/mL
Escherichia coli [2]; E. coli NCTC9001, second agent none
  MIC E. coli NCTC9001: 1 micrograms/mL
Escherichia coli [2]; Second Agent none (Table 7A)
  MIC E. coli NCTC9001: 1 microgram/mL
Escherichia coli [2]; Second Agent none (Table 7B)
  MIC E. coli ATCC25922: 1 micrograms/mL
  MIC E. coli CCUG 59342: 0.5 micrograms/mL
  MIC E. coli NCTC9001: 2 micrograms/mL
Escherichia coli [2]; Second Agent none (Table 7C)
  MIC E. coli NCTC9001: 1 micrograms/mL
Pseudomonas aeruginosa [3]; P. aeruginosa CCUG 59626, second agent none
  MIC P. aeruginosa CCUG 59626: 0.5 micrograms/mL
Pseudomonas aeruginosa [3]; [14]
  MIC P. aeruginosa ATCC 27853: 0.25 micrograms/mL
  MIC P. aeruginosa CCUG 59626: 0.5 micrograms/mL
Pseudomonas aeruginosa [3]; Second Agent none (Table 7C)
  MIC P. aeruginosa CCUG 59626: 0.5 micrograms/mL
Klebsiella pneumoniae [4]; K. pneumoniae ATCC BAA-1706, second agent none
  MIC K. pneumoniae ATCC BAA-1706: 2 micrograms/mL
Klebsiella pneumoniae [4]; K. pneumoniae CCUG 59348, second agent none
  MIC K. pneumoniae CCUG 59348: 32 micrograms/mL
Klebsiella pneumoniae [4]; K. pneumoniae NCTC 13442, second agent none
  MIC K. pneumoniae NCTC 13442: 2 micrograms/mL
Klebsiella pneumoniae [4]; Second Agent none (Table 7A)
  MIC K. pneumoniae CCUG 59348: 32 microgram/mL
  MIC K. pneumoniae CCUG 59626: 0.5 microgram/mL
  MIC K. pneumoniae NCTC 13442: 2 microgram/mL
Klebsiella pneumoniae [4]; Second Agent none (Table 7B)
  MIC K. pneumoniae CCUG 59348: 32 micrograms/mL
  MIC K. pneumoniae NCTC 13442: 2 micrograms/mL
Klebsiella pneumoniae [4]; [14]
  MIC K. pneumoniae ATCC 4352: 0.5 micrograms/mL
  MIC K. pneumoniae ATCC BAA-1706: 2 micrograms/mL
Klebsiella pneumoniae [4]; Second Agent none (Table 7C)
  MIC K. pneumoniae CCUG 59348: 32 micrograms/mL
  MIC K. pneumoniae NCTC 13442: 2 micrograms/mL
Acinetobacter baumannii [7]
  MIC A. baumannii NCTC 13424: 0.5 micrograms/mL
[5]; Total daily dosage 10 mg/Kg (sulfate salt), subcutaneous BID
  Mean log10 CFU reduction vs. control: 2.60 log10 CFU
Escherichia coli [8]; 1:1 (wt:wt) combination with Rifampicin, MIC = total drug concentration, strain ATCC25922
  MIC E. coli ATCC25922: 0.25 micrograms/mL
Escherichia coli [8]; 1:1 (wt:wt) combination with Rifampicin, MIC = total drug concentration, strain NCTC9001
  MIC E. coli NCTC9001: 0.25 micrograms/mL
Escherichia coli [8]; [15]
  MIC E. coli ATCC25922: ≤0.06 micrograms/mL
  MIC E. coli CCUG 59342: 1 micrograms/mL
  MIC E. coli NCTC9001: ≤0.06 micrograms/mL
Escherichia coli [8]; [16]
  MIC E. coli NCTC9001: 4 micrograms/mL
Escherichia coli [8]; [17]
  MIC E. coli NCTC9001: 4 microgram/mL
Escherichia coli [8]; E. coli NCTC9001, 1:1 combination with Meropenem, total drug concentration
  MIC E. coli NCTC9001: 0.25 micrograms/mL
Pseudomonas aeruginosa [9]; 1:1 (wt:wt) combination with Rifampicin, MIC = total drug concentration, strain ATCC 27853
  MIC P. aeruginosa ATCC 27853: 0.25 micrograms/mL
Pseudomonas aeruginosa [9]; 1:1 (wt:wt) combination with Rifampicin, MIC = total drug concentration, strain ATCC CRM-9027
  MIC P. aeruginosa ATCC CRM-9027: 1 micrograms/mL
Pseudomonas aeruginosa [9]; 1:1 (wt:wt) combination with Rifampicin, MIC = total drug concentration, strain ATCC-47
  MIC P. aeruginosa ATCC-47: 2 micrograms/mL
Pseudomonas aeruginosa [9]; 1:1 (wt:wt) combination with Rifampicin, MIC = total drug concentration, strain CCUG 59626
  MIC P. aeruginosa CCUG 59626: 0.5 micrograms/mL
Pseudomonas aeruginosa [9]; [18]
  MIC P. aeruginosa ATCC 27853: 0.125 micrograms/mL
  MIC P. aeruginosa CCUG 59626: 1 micrograms/mL
Pseudomonas aeruginosa [9]; [16]
  MIC P. aeruginosa CCUG 59626: 1 micrograms/mL
Pseudomonas aeruginosa [9]; P. aeruginosa CCUG 59626, 1:1 combination with Meropenem, total drug concentration
  MIC P. aeruginosa CCUG 59626: 1 micrograms/mL
Klebsiella pneumoniae [6]; 1:1 (wt:wt) combination with Rifampicin, MIC = total drug concentration, strain ATCC 4352
  MIC K. pneumoniae ATCC 4352: 0.5 micrograms/mL
Klebsiella pneumoniae [6]; [11]
  MIC K. pneumoniae ATCC-BAA-2146: 1 micrograms/mL
Klebsiella pneumoniae [6]; [12]
  MIC K. pneumoniae CCUG-59348: 1 micrograms/mL
Klebsiella pneumoniae [6]; [13]
  MIC K. pneumoniae NCTC 13438: 0.5 micrograms/mL
Klebsiella pneumoniae [6]; [18]
  MIC K. pneumoniae ATCC 4352: ≤0.06 micrograms/mL
  MIC K. pneumoniae ATCC BAA-1706: 1 micrograms/mL
Klebsiella pneumoniae [6]; [15]
  MIC K. pneumoniae CCUG 59348: 32 micrograms/mL
  MIC K. pneumoniae NCTC 13442: 1 micrograms/mL
Klebsiella pneumoniae [6]; [16]
  MIC K. pneumoniae CCUG 59348: >32 micrograms/mL
  MIC K. pneumoniae NCTC 13442: 4 micrograms/mL
Klebsiella pneumoniae [6]; [17]
  MIC K. pneumoniae CCUG 59348: >32 microgram/mL
  MIC K. pneumoniae CCUG 59626: 2 microgram/mL
  MIC K. pneumoniae NCTC 13442: 8 microgram/mL
Klebsiella pneumoniae [6]; K. pneumoniae ATCC BAA-1706, 1:1 combination with Meropenem, total drug concentration
  MIC K. pneumoniae ATCC BAA-1706: 4 micrograms/mL
Klebsiella pneumoniae [6]; K. pneumoniae CCUG 59348, 1:1 combination with Meropenem, total drug concentration
  MIC K. pneumoniae CCUG 59348: >32 micrograms/mL
Klebsiella pneumoniae [6]; K. pneumoniae NCTC 13442, 1:1 combination with Meropenem, total drug concentration
  MIC K. pneumoniae NCTC 13442: 4 micrograms/mL
Klebsiella pneumoniae [6]; [19]
  MIC K. pneumoniae ATCC-BAA-2146: 1 micrograms/mL
  MIC K. pneumoniae CCUG-59348: 2 micrograms/mL
  MIC K. pneumoniae NCTC 13438: 2 micrograms/mL
Klebsiella pneumoniae [6]; [20]
  MIC K. pneumoniae ATCC-BAA-2146: 4 micrograms/mL
  MIC K. pneumoniae CCUG-59348: 4 micrograms/mL
  MIC K. pneumoniae NCTC 13438: 2 micrograms/mL
Klebsiella pneumoniae [6]; [21]
  MIC K. pneumoniae ATCC-BAA-2146: 1 micrograms/mL
  MIC K. pneumoniae CCUG-59348: 1 micrograms/mL
  MIC K. pneumoniae NCTC 13438: 1 micrograms/mL
Acinetobacter baumannii [10]; 1:1 (wt:wt) combination with Rifampicin, MIC = total drug concentration, strain ATCC BAA-747
  MIC A. baumannii ATCC BAA-747: 0.25 micrograms/mL
Acinetobacter baumannii [10]; 1:1 (wt:wt) combination with Rifampicin, MIC = total drug concentration, strain CCUG57249
  MIC A. baumannii CCUG57249: 0.25 micrograms/mL
Acinetobacter baumannii [10]; 1:1 (wt:wt) combination with Rifampicin, MIC = total drug concentration, strain NCTC 13423
  MIC A. baumannii NCTC 13423: 0.125 micrograms/mL
Acinetobacter baumannii [10]; 1:1 (wt:wt) combination with Rifampicin, MIC = total drug concentration, strain NCTC 13424
  MIC A. baumannii NCTC 13424: 0.25 micrograms/mL
Acinetobacter baumannii [10]; [18]
  MIC A. baumannii NCTC 13424: 0.5 micrograms/mL
